# Source: patent publication US8530489B2 (Vertex Pharmaceuticals Incorporated, priority 2006, dated 2013)
# Target: PLK1 (Homo sapiens, UniProt P53350)
# Assay: PLK1 Inhibition Assay I (radioactive-phosphate incorporation)
# Assay type: biochemical
# Details: Ki(app); PLK1 Inhibition Assay I or II (table does not say which)
# In short: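 Ki(app) values came from non-linear regression of initial rates after background subtraction, with phosphopeptide measured by phosphocellulose filter binding and scintillation counting. PLK1 at 2 nM was preincubated with compound (typically from 10 μM, 2-fold dilutions) for 10 min, then run 240 min at 25° C with 350 μM [γ-33P]ATP and 450 μM peptide substrate in HEPES pH 7.5 buffer.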
# PLK1, sequence (P53350 whole entry): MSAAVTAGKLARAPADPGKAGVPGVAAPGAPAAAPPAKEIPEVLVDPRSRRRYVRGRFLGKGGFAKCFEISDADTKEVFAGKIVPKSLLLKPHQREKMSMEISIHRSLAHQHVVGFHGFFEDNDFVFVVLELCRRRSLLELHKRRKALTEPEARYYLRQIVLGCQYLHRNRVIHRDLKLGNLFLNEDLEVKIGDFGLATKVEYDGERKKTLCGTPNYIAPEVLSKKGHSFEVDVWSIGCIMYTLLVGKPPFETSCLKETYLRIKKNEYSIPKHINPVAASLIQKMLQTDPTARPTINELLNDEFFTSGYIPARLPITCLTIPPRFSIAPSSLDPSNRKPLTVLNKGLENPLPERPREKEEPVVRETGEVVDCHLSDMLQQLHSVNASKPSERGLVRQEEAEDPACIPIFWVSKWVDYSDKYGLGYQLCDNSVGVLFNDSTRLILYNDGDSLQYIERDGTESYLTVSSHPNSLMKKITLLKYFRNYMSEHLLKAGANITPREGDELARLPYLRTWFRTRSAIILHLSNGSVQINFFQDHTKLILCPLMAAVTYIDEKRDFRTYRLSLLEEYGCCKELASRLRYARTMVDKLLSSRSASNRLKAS
row,Ki,SMILES
1,< 3 nM,"C[C@@H](Nc1ncc(C#N)c(-c2c[nH]c3ncc(C(F)(F)F)cc23)n1)C1CCN(C(=O)[C@H](O)C(F)(F)F)CC1 [Compound I-230, 2-((R)-1-(1-((S)-3,3,3-trifluoro-2-hydroxypropanoyl)piperidin-4-yl)ethylamino)-4-(5-(trifluoromethyl)-1H-pyrrolo[2,3-b]pyridin-3-yl)pyrimidine-5-carbonitrile]"
2,3 to 40 nM,"CC(Nc1ncc(C#N)c(-c2c[nH]c3ncc(C(F)(F)F)cc23)n1)c1ccc(N2CCC(F)CC2)nc1 (stereo not shown) [Compound I-199, 2-(1-(6-(4-fluoropiperidin-1-yl)pyridin-3-yl)ethylamino)-4-(5-(trifluoromethyl)-1H-pyrrolo[2,3-b]pyridin-3-yl)pyrimidine-5-carbonitrile]"
3,3 to 40 nM,"CCCC(C)Nc1ncc(C#N)c(-c2c[nH]c3ncc(C(F)(F)F)cc23)n1 (stereo not shown) [Compound I-35, 2-(pentan-2-ylamino)-4-(5-(trifluoromethyl)-1H-pyrrolo[2,3-b]pyridin-3-yl)pyrimidine-5-carbonitrile]"
4,< 3 nM,"C[C@@H](Nc1ncc(C#N)c(-c2c[nH]c3ncc(C(F)(F)F)cc23)n1)C1CCN(CC(N)=O)CC1 [Compound I-218, 2-(4-((1R)-1-(5-cyano-4-(5-(trifluoromethyl)-1H-pyrrolo[2,3-b]pyridin-3-yl)pyrimidin-2-ylamino)ethyl)piperidin-1-yl)acetamide]"
5,3 to 40 nM,"C#CCN1CCC(C(C)Nc2ncc(C#N)c(-c3c[nH]c4ncc(C(F)(F)F)cc34)n2)CC1 (stereo not shown) [Compound I-178, 2-(1-(1-(prop-2-ynyl)piperidin-4-yl)ethylamino)-4-(5-(trifluoromethyl)-1H-pyrrolo[2,3-b]pyridin-3-yl)pyrimidine-5-carbonitrile]"
6,< 3 nM,"CC(C)N1CCN(c2ccc([C@@H](C)Nc3ncc(C#N)c(-c4c[nH]c5ncc(C(F)(F)F)cc45)n3)cn2)CC1 [Compound I-284, 2-((R)-1-(6-(4-isopropylpiperazin-1-yl)pyridin-3-yl)ethylamino)-4-(5-(trifluoromethyl)-1H-pyrrolo[2,3-b]pyridin-3-yl)pyrimidine-5-carbonitrile]"
7,3 to 40 nM,"CC(C)CNc1ncc(C#N)c(-c2c[nH]c3ncc(C(F)(F)F)cc23)n1 [Compound I-36, 2-(isobutylamino)-4-(5-(trifluoromethyl)-1H-pyrrolo[2,3-b]pyridin-3-yl)pyrimidine-5-carbonitrile]"
8,> 40 nM,"N#Cc1cnc(NCc2ccc(Cl)nc2)nc1-c1c[nH]c2ncc(C(F)(F)F)cc12 [Compound I-50, 2-((6-chloropyridin-3-yl)methylamino)-4-(5-(trifluoromethyl)-1H-pyrrolo[2,3-b]pyridin-3-yl)pyrimidine-5-carbonitrile]"
9,3 to 40 nM,"CC(=O)N[C@H]1CC[C@@H]([C@@H](C)Nc2ncc(C#N)c(-c3c[nH]c4ncc(C(F)(F)F)cc34)n2)CC1 [Compound I-209, N-((1S,4s)-4-((1R)-1-(5-cyano-4-(5-(trifluoromethyl)-1H-pyrrolo[2,3-b]pyridin-3-yl)pyrimidin-2-ylamino)ethyl)cyclohexyl)acetamide]"
10,> 40 nM,"CCN(Cc1ccccc1)c1ncc(C#N)c(-c2c[nH]c3ncc(C(F)(F)F)cc23)n1 [Compound I-11, 2-(benzyl(ethyl)amino)-4-(5-(trifluoromethyl)-1H-pyrrolo[2,3-b]pyridin-3-yl)pyrimidine-5-carbonitrile]"
11,< 3 nM,"CCNC(=O)c1ccc([C@@H](C)Nc2ncc(C#N)c(-c3c[nH]c4ncc(C(F)(F)F)cc34)n2)cc1 [Compound I-170, 4-((1R)-1-(5-cyano-4-(5-(trifluoromethyl)-1H-pyrrolo[2,3-b]pyridin-3-yl)pyrimidin-2-ylamino)ethyl)-N-ethylbenzamide]"
12,< 3 nM,"C[C@@H](Nc1ncc(C#N)c(-c2c[nH]c3ncc(C(F)(F)F)cc23)n1)C1CCN(C(=O)CO)CC1 [Compound I-205, 2-((R)-1-(1-(2-hydroxyacetyl)piperidin-4-yl)ethylamino)-4-(5-(trifluoromethyl)-1H-pyrrolo[2,3-b]pyridin-3-yl)pyrimidine-5-carbonitrile]"
13,3 to 40 nM,"N#Cc1cnc(NCC2CCOCC2)nc1-c1c[nH]c2ncc(C(F)(F)F)cc12 [Compound I-57, 2-((tetrahydro-2H-pyran-4-yl)methylamino)-4-(5-(trifluoromethyl)-1H-pyrrolo[2,3-b]pyridin-3-yl)pyrimidine-5-carbonitrile]"
14,3 to 40 nM,"N#Cc1cnc(NCc2ccc3c(c2)CCO3)nc1-c1c[nH]c2ncc(C(F)(F)F)cc12 [Compound I-62, 2-((2,3-dihydrobenzofuran-5-yl)methylamino)-4-(5-(trifluoromethyl)-1H-pyrrolo[2,3-b]pyridin-3-yl)pyrimidine-5-carbonitrile]"
15,< 3 nM,"C[C@@H](Nc1ncc(C#N)c(-c2c[nH]c3ncc(C(F)(F)F)cc23)n1)C1CCN(C(=O)[C@@H](N)CC#N)CC1 [Compound I-255, 2-((R)-1-(1-((S)-2-amino-3-cyanopropanoyl)piperidin-4-yl)ethylamino)-4-(5-(trifluoromethyl)-1H-pyrrolo[2,3-b]pyridin-3-yl)pyrimidine-5-carbonitrile]"
16,> 40 nM,"N#Cc1cnc(SC2CCCCC2)nc1-c1c[nH]c2ncc(C(F)(F)F)cc12 [II-13, 2-(cyclohexylthio)-4-(5-(trifluoromethyl)-1H-pyrrolo[2,3-b]pyridin-3-yl)pyrimidine-5-carbonitrile]"
17,3 to 40 nM,"N#Cc1cnc(NC2CCC(O)CC2)nc1-c1c[nH]c2ncc(C(F)(F)F)cc12 (stereo not shown) [Compound I-95, 2-(4-hydroxycyclohexylamino)-4-(5-(trifluoromethyl)-1H-pyrrolo[2,3-b]pyridin-3-yl)pyrimidine-5-carbonitrile]"
18,> 40 nM,"CC(C)C[C@H](CO)Nc1ncc(C#N)c(-c2c[nH]c3ncc(C(F)(F)F)cc23)n1 [Compound I-44, 2-((R)-1-hydroxy-4-methylpentan-2-ylamino)-4-(5-(trifluoromethyl)-1H-pyrrolo[2,3-b]pyridin-3-yl)pyrimidine-5-carbonitrile]"
19,< 3 nM,"C[C@@H](Nc1ncc(C#N)c(-c2c[nH]c3ncc(C(F)(F)F)cc23)n1)C1CCN(C(=O)[C@H]2CCN2)CC1 [Compound I-259, 2-((R)-1-(1-((R)-azetidine-2-carbonyl)piperidin-4-yl)ethylamino)-4-(5-(trifluoromethyl)-1H-pyrrolo[2,3-b]pyridin-3-yl)pyrimidine-5-carbonitrile]"
20,> 40 nM,"N#Cc1cnc(NC(CO)C2CCOC2)nc1-c1c[nH]c2ncc(C(F)(F)F)cc12 (stereo not shown) [Compound I-104, 2-(2-hydroxy-1-(tetrahydrofuran-3-yl)ethylamino)-4-(5-(trifluoromethyl)-1H-pyrrolo[2,3-b]pyridin-3-yl)pyrimidine-5-carbonitrile]"
21,3 to 40 nM,"CC(Nc1ncc(C#N)c(-c2c[nH]c3ncc(C(F)(F)F)cc23)n1)c1ccc(N2CC(F)(C3CC3)C2)nc1 (stereo not shown) [Compound I-191, 2-(1-(6-(3-cyclopropyl-3-fluoroazetidin-1-yl)pyridin-3-yl)ethylamino)-4-(5-(trifluoromethyl)-1H-pyrrolo[2,3-b]pyridin-3-yl)pyrimidine-5-carbonitrile]"
22,3 to 40 nM,"CC(C)(Nc1ncc(C#N)c(-c2c[nH]c3ncc(Cl)cc23)n1)C(=O)NCC(F)(F)F [IA-11, 2-(4-(5-chloro-1H-pyrrolo[2,3-b]pyridin-3-yl)-5-cyanopyrimidin-2-ylamino)-2-methyl-N-(2,2,2-trifluoroethyl)propanamide]"
